Assays:
hepatocytes [1] = experiment: Effectiveness of different K-Ras activating agents in bile canaliculi formation; format: cell-based, human; conditions: normal culture, Day 4; agent added to medium of the instant invention without OsM
Experimental: (§1) The frozen stock of human primary-cultured hepatocytes (PHHs) was thawed using commercially available thawing medium, and cell number was counted using trypan blue. To a 96-well plate coated with collagen I, PHHs were plated at 1.0×10^5 cells/well seeding density, using the medium of the instant invention, commercial medium A, commercial medium B, and commercial medium C such that the medium volume was 75 μL/well, and cultured at 37° C. under 5% CO2 condition. Four hours, 1 day, 2 days, and 4 days after seeding, the total amount of medium was replaced using each medium such that the medium volume was 75 μL/well, and the plate was cultured until Day 7 of culture.
Two types of media were used as controls: the medium of the instant invention without OsM (a negative control), and the medium of the instant invention (a positive control), and four more types of media were prepared based on the negative control to which a K-Ras activating agent other than OsM (IL-6, LIF, CNTF or Ras-GRF) was added (six types of media in total). Each medium was used for carrying out normal culture, and on culture Day 4 the medium was removed and 4 μmol/L CDFDA solution was added at 100 μL/well. The culture was incubated in a CO2 incubator (5% CO2, 37° C.) for 10 minutes, and observed using fluorescence microscopy.

hepatocytes [2] = experiment: Effect of each medium component on bile canaliculi formation (component removal); format: cell-based, human; conditions: normal culture, Day 4; named component removed from the medium of the instant invention
Experimental: as §1
Eight types of media in total: the medium of the instant invention, and media prepared by removing the main six components (HGF, OsM, DEX, Frk, DMSO, S-220) from the medium of the instant invention (in some case, 2 components were removed), were prepared, and each was used for performing normal culture. Phase contrast microscopy was performed on Day 4 of culture. […] Thereafter, the culture was washed three times with HBSS (+), the medium for each condition was added at 75 μL/well, then the culture was incubated in CO2 incubator (5% CO2, 37° C.) for 10 minutes and observed by fluorescence microscopy.

| Substance | level of accumulation of CDFDA relative to OsM (positive control) (hepatocytes [1]) | accumulation of CDFDA in bile canaliculi (fluorescence microscopy image) (hepatocytes [2]) | boundaries between cells (phase contrast microscope image) (hepatocytes [2]) |
| --- | --- | --- | --- |
| IL-6: IL-6 family cytokine, K-Ras activating agent other than OsM | comparable level of accumulation of CDFDA | – | – |
| oncostatin M [OsM] | – | almost no accumulation of CDFDA in the bile canaliculi | boundaries between cells could hardly be observed |

— patent US20250368961A1, “Medium for producing a bile canaliculus and method for producing a bile canaliculus using the same” (INSTITUTE OF SCIENCE TOKYO, priority 2024, published 2025)
